Test results reported in paper PMC12603070, “A high-throughput screening approach to discover potential colorectal cancer chemotherapeutics: repurposing drugs to identify novel disruptors of 14-3-3 proteins” (Cell Death & Disease, 2025).
Where a name gives a salt, the structure may show the parent alone. Read-outs that look alike come from different tables or passages of the source.

Columns and labels:
NIH-3T3 cells = experiment: Hoechst/propidium iodide cell death assay in NIH-3T3; assay type: cell-based; details: for cytotoxicity at 20 µM: Mus musculus, NIH3T3, 24 h, read-out: Percentage of cell death % 24h NIH3t3
Description: (§1) A high-content imaging system (PerkinElmer; Operetta CLS), was used to quantify cell death and apoptosis by calculating the number of propidium iodide-positive cells relative to Hoechst-positive cells, and the number of Annexin V-positive cells relative to Hoechst-positive cells, respectively.

[1] = molecular target: T1, 14-3-3ζ:BAD-112-136F interactions (Homo sapiens, UniProt P63104); experiment: BRET sensor screen for disruption of 14-3-3ζ-Rluc8:BAD-112-136F-mCitrine in living NIH-3T3 cells; assay type: cell-based, murine; set-up: inhibition: dose or concentration left out as unconfirmed; details: for inhibition at 20 µM / inhibition: NIH3T3, 3 h, read-out: BRET reduction on NIH-3T3
T1 construct: expressed in transfected cells; host or cells: NIH-3T3 fibroblasts, bi-directional pBI-CMV1 plasmid
T1 sequence (P63104 1-245): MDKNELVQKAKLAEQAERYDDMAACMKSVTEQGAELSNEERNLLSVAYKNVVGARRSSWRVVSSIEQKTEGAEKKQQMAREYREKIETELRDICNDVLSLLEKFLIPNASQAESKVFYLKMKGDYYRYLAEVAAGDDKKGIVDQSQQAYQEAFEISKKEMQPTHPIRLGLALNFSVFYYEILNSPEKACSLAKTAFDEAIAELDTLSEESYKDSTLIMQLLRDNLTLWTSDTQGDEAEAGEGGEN
Procedure: The Z’-score, which evaluates the robustness of an HTS assay readout, was calculated according to standard protocols. For the HTS, 384-well plates were coated with 100 μg/mL poly-L-ornithine (Sigma, Missouri, United States; #P3655) overnight at 37 °C, followed by rinsing with sterilized water. NIH-3T3 cells were transfected with the BRET sensor two days prior to experimentation, followed by replating onto the pre-coated 384-well plates at a density of 20,000 cells/well. After 24 h of incubation at 37 °C, growth media was replaced by Krebs buffer (pH 7.4).

HT-29 cells = experiment: Hoechst/propidium iodide cell death assay in HT-29; assay type: cell-based, human; details: Homo sapiens
Description: as §1

[2] = NIH-3T3 cells, hits from the primary screen
[3] = HT-29, 24 h, read-out: Percentage of cell death % 24h HT-29
[4] = HT-29, 48 h, read-out: Percentage of cell death % 48h, HT-29
[5] = NIH-3T3 expressing BRET sensor, 20 µM, 3 h
[6] = HT-29, 24 h, 20 µM, 24 h, read-out: Percentage of cell death % 24h HT-29
[7] = HT-29, 48 h, HT-29, 48h, 20 μM, read-out: Percentage of cell death % 48h, HT-29

Compound	inhibition [1, 2]	inhibition at 20 µM [1, 5]	cytotoxicity at 20 µM (NIH-3T3 cells)	Percentage of cell death % 48h, NIH3T3 (NIH-3T3 cells)	inhibition at 20 µM [1]	BRET reduction on NIH-3T3 [1, 2]	cytotoxicity at 20 µM (HT-29 cells; [3])	cytotoxicity at 20 µM (HT-29 cells; [4])	cytotoxicity at 20 µM (NIH-3T3 cells; 20 µM, 24 h)	cytotoxicity at 20 µM (HT-29 cells; [6])	cytotoxicity at 20 µM (HT-29 cells; [7])
COc1cc(C)c(/C=C/C(C)=C/C=C/C(C)=C/C(=O)O)c(C)c1C [Acitretin]	–	–	0.791%	1.816%	31.9%	31.8517	0.862%	1.82%	–	–	–
C[C@@H](O[C@H]1OCCN(Cc2n[nH]c(=O)[nH]2)[C@H]1c1ccc(F)cc1)c1cc(C(F)(F)F)cc(C(F)(F)F)c1 [Aprepitant]	26.6%	26.6%	–	2.577%	–	–	–	–	1.15%	1.47%	3.76%
C=C[C@@H]1C[C@]1(NC(=O)[C@@H]1C[C@@H](Oc2ncc(OC)c3ccc(Cl)cc23)CN1C(=O)[C@@H](NC(=O)OC(C)(C)C)C(C)(C)C)C(=O)NS(=O)(=O)C1CC1 [Asunaprevir (BMS-650032), Asunaprevir]	41.4%	41.4%	–	2.12%	–	–	–	–	3.04%	1.15%	3.86%
CC(C)(C)CC(C)(C)c1ccc(OCCOCC[N+](C)(C)Cc2ccccc2)cc1 [Benzethonium Chloride]	–	–	51.9%	51.9198%	–	–	43.5%	90.4%	–	–	–
CCN1CCN(c2cc(-c3ccc(F)cc3)c3c(n2)CCCCCC3)CC1 [Blonanserin]	25.1%	25.1%	–	1.273%	–	–	–	–	1.45%	2.57%	15.5%
C=C1/C(=C\C=C2/CCC[C@]3(C)[C@@H]([C@H](C)/C=C/[C@@H](O)C4CC4)CC[C@@H]23)C[C@@H](O)C[C@@H]1O [Calcipotriol]	31.7%	31.7%	–	2.028%	–	–	–	–	0.552%	0.559%	0.922%
C=C1/C(=C\C=C2/CCC[C@]3(C)[C@@H]([C@H](C)CCCC(C)(C)O)CC[C@@H]23)C[C@@H](O)C[C@@H]1O [Calcitriol]	–	–	–	1.321%	–	–	–	–	1.56%	0.461%	0.982%
COc1cc2c(Oc3ccc4[nH]c(C)cc4c3F)ncnc2cc1OCCCN1CCCC1 [Cediranib (AZD217), Cediranib]	39.9%	39.9%	–	55.3041%	–	–	–	–	76.9%	11.9%	83.5%
C[C@H](CCC(=O)O)[C@H]1CC[C@H]2[C@@H]3[C@H](O)C[C@@H]4C[C@H](O)CC[C@]4(C)[C@H]3CC[C@]12C [Chenodeoxycholic Acid]	31.3%	31.3%	–	0.2284%	–	–	–	–	0.372%	1.21%	2.27%
C(=C\c1ccccc1)/CN1CCN(C(c2ccccc2)c2ccccc2)CC1 [Cinnarizine]	–	–	–	0.3398%	–	–	–	–	0.412%	0.381%	1.26%
COc1cc2ncnc(Nc3ccc(F)c(Cl)c3)c2cc1NC(=O)/C=C/CN1CCCCC1 [Dacomitinib (PF299804, PF299), Dacomitinib]	26.7%	26.7%	–	75.5856%	–	–	–	–	86.8%	22.7%	84.1%
C#C[C@]1(O)CC[C@H]2[C@@H]3CCC4=CCCC[C@@H]4[C@H]3C(=C)C[C@@]21CC [Desogestrel]	40.6%	40.6%	–	8.012%	–	–	–	–	16.1%	1.59%	2.12%
CC1(C)[C@@H](O)CC[C@]2(C)[C@H]3C(=O)C=C4[C@@H]5C[C@@](C)(C(=O)O)CC[C@]5(C)CC[C@@]4(C)[C@]3(C)CC[C@@H]12 [Enoxolone]	42.9%	42.9%	–	0.6522%	–	–	–	–	4.15%	0.697%	1.61%
CN1CCN(c2ccc(C(=O)Nc3n[nH]c4ccc(Cc5cc(F)cc(F)c5)cc34)c(NC3CCOCC3)c2)CC1 [Entrectinib]	56.8%	56.8%	–	85.5203%	–	–	–	–	81.5%	58.1%	80.4%
Clc1ccc(CSC(Cn2ccnc2)c2ccc(Cl)cc2Cl)cc1 (stereo not shown) [Sulconazole Nitrate]	–	–	–	9.7879%	–	–	–	–	10.8%	7.98%	12.2%

The next lines start with results.

inhibition [1, 2]	inhibition at 20 µM [1, 5]	Compound	cytotoxicity at 20 µM (NIH-3T3 cells)	Percentage of cell death % 48h, NIH3T3 (NIH-3T3 cells)	inhibition at 20 µM [1]	BRET reduction on NIH-3T3 [1, 2]	cytotoxicity at 20 µM (HT-29 cells; [3])	cytotoxicity at 20 µM (HT-29 cells; [4])	cytotoxicity at 20 µM (NIH-3T3 cells; 20 µM, 24 h)	cytotoxicity at 20 µM (HT-29 cells; [6])	cytotoxicity at 20 µM (HT-29 cells; [7])
29.5%	29.5%	C=C(c1ccc(C(=O)O)cc1)c1cc2c(cc1C)C(C)(C)CCC2(C)C [Bexarotene]	–	2.3561%	–	–	–	–	3.81%	0.535%	4.19%
32.1%	32.1%	c1ccc(-c2ccc(C(c3ccccc3)n3ccnc3)cc2)cc1 (stereo not shown) [Bifonazole]	–	0.5325%	–	–	–	–	0.428%	1.45%	2.62%
45.1%	45.1%	Clc1ccc(CCC(Cn2ccnc2)Sc2c(Cl)cccc2Cl)cc1 (stereo not shown) [Butoconazole nitrate]	–	1.36%	–	–	–	–	1.23%	1.75%	3.36%
44.9%	44.9%	CCOc1nc2cccc(C(=O)OC(C)OC(=O)OC3CCCCC3)c2n1Cc1ccc(-c2ccccc2-c2nnn[nH]2)cc1 (stereo not shown) [Candesartan Cilexetil]	–	2.478%	–	–	–	–	12.2%	1.16%	1.91%
27%	27%	CN(C)CCCN1c2ccccc2CCc2ccc(Cl)cc21 [Clomipramine HCl]	–	8.7601%	–	–	–	–	7.72%	0.662%	2.3%
30.1%	30.1%	Clc1ccccc1C(c1ccccc1)(c1ccccc1)n1ccnc1 [Clotrimazole]	–	1.657%	–	–	–	–	0.937%	0.234%	0.787%
75.6%	75.6%	CN(C)c1ccc(C(=C2C=CC(=[N+](C)C)C=C2)c2ccc(N(C)C)cc2)cc1 [Crystal Violet]	–	91.1305%	–	–	–	–	94.3%	94.9%	95.4%
28.3%	28.3%	CC/C(=C(/CC)c1ccc(O)cc1)c1ccc(O)cc1 [Diethylstilbestrol]	–	3.653%	–	–	–	–	11.2%	0.869%	2.76%
48.3%	48.3%	Clc1ccc(COC(Cn2ccnc2)c2ccc(Cl)cc2Cl)cc1 (stereo not shown) [Econazole nitrate]	–	7.996%	–	–	–	–	14.2%	8.57%	13%
27.6%	27.6%	CCOC(=O)C1=C(C)NC(C)=C(C(=O)OC)C1c1cccc(Cl)c1Cl (stereo not shown) [Felodipine]	–	43.2531%	–	–	–	–	6.69%	3.81%	6.71%
31.7%	31.7%	Clc1ccc(C(Cn2ccnc2)OCc2ccc(Sc3ccccc3)cc2)c(Cl)c1 (stereo not shown) [Fenticonazole Nitrate]	–	1.538%	–	–	–	–	0.773%	0.786%	1.58%
